Columns and labels:
Mu (μ) opioid receptor = Mu (μ) opioid receptor (Homo sapiens, UniProt P35372); assay: Filtration binding assay, mu opioid receptor, DAMGO-3H ligand
[1] = target: Delta (δ) opioid receptor (Homo sapiens, UniProt P41143); assay: Filtration binding assay, delta opioid receptor, DPDPE-3H ligand
[2] = target: Kappa (κ) opioid receptor (Homo sapiens, UniProt P41145); assay: Filtration binding assay, kappa opioid receptor, U-69,593-3H ligand
Chain of Kappa (κ) opioid receptor (P41145 whole entry): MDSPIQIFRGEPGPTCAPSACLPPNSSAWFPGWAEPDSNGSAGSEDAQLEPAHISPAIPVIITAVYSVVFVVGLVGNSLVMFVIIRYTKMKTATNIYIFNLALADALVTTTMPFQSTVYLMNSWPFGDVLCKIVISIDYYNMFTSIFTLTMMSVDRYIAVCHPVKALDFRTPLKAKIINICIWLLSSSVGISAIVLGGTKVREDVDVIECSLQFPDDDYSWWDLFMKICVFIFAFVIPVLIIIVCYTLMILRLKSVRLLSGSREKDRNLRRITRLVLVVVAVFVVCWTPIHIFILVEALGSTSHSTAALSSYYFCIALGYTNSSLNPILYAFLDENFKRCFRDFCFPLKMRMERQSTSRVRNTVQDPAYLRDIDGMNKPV

Chain of Delta (δ) opioid receptor (P41143 whole entry): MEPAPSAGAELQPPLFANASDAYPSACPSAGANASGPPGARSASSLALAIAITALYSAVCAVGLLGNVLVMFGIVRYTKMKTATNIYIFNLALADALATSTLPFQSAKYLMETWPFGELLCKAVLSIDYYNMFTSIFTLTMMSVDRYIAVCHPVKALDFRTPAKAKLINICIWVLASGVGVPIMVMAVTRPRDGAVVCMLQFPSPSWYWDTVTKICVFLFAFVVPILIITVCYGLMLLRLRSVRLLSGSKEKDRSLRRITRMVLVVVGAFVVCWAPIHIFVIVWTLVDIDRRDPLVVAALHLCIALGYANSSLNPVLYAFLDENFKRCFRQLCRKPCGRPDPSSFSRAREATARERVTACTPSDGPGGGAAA
Chain of Mu (μ) opioid receptor (P35372 whole entry): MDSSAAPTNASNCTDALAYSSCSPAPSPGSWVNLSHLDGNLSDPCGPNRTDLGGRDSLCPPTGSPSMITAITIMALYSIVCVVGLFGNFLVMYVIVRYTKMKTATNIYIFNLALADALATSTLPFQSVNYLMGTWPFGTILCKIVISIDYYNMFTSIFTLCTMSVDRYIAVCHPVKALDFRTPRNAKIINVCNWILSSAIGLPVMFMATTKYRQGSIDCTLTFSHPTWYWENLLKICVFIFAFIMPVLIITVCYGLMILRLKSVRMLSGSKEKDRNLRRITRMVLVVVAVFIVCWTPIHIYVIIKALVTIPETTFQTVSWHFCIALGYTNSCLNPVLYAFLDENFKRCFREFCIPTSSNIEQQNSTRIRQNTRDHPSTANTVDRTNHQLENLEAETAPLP

| SMILES | Ki (Mu (μ) opioid receptor) | Ki [1] | Ki [2] |
| --- | --- | --- | --- |
| Cc1cccc2cccc(CN3CCC4(CC3)C(=O)N(C[C@H]3CNC(=O)O3)CN4c3ccc(F)cc3)c12 [Compound 2, 1-(4-Fluoro-phenyl)-8-(8-methyl-naphthalen-1-ylmethyl)-3-(R)-(2-oxo-oxazolidin-5-ylmethyl)-1,3,8-triaza-spiro[4.5]decan-4-one] | 740 nM | > 5000 nM | 640 nM |
| Cc1cccc2cccc(CN3CCC4(CC3)C(=O)N(C[C@H]3CN(C)C(=O)O3)CN4c3ccc(F)cc3)c12 [Compound 4, 1-(4-Fluoro-phenyl)-8-(8-methyl-naphthalen-1-ylmethyl)-3-(S)-(3-methyl-2-oxo-oxazolidin-5-ylmethyl)-1,3,8-triaza-spiro[4.5]decan-4-one] | 360 nM | > 5000 nM | 120 nM |
| COCCN1C[C@@H](CN2CN(c3ccc(F)cc3)C3(CCN(Cc4cccc5cccc(C)c45)CC3)C2=O)OC1=O [Compound 5, 1-(4-Fluoro-phenyl)-3-(R)-[3-(2-methoxy-ethyl)-2-oxo-oxazolidin-5-ylmethyl]-8-(8-methyl-naphthalen-1-ylmethyl)-1,3,8-triaza-spiro[4.5]decan-4-one] | 180 nM | > 5000 nM | 580 nM |

Reference: patent US20100076003A1, “5-OXAZOLIDIN-2-ONE SUBSTITUTED 1,3,8-TRIAZASPIRO[4.5]DECAN-4-ONE DERIVATIVES USEFUL AS ORL-1 RECEPTOR MODULATORS” (priority 2008, published 2010)
